Data from patent publication US20120132594A1, “AQUEOUS SOLVENTS FOR HYDROCARBONS AND OTHER HYDROPHOBIC COMPOUNDS” (IMPERIAL INNOVATIONS LIMITED, priority 2009, published 2012).

Assay: Extraction of organic standards from spiked JSC-1 rock with aqueous polysorbate 80 solution, GC-MS
Type: physicochemical
Settings: ultrasonication 20 minutes
Description: JSC-1, a Martian and lunar analogue (McKay et al. (1993) JSC-1: A new lunar regolith simulant. Lunar and Planetary Institute Conference Abstracts), was spiked with various hydrocarbon compound classes (Table 1 below). All are known to be soluble in organic solvents, and are considered mostly insoluble in water with the exception of atrazine. 1 ml of a mixture of 10.0 ng ml^−1 hydrocarbon standards were spiked on to 1 g of rock, the concentrations of each non-aromatic standard amounted to 10.0 ng g^−1 rock (10 ppb). Terphenyl (an aromatic compound) was used as a second quantitation standard, added just before analysis in order to establish extraction efficiencies for the JSC-1 rock.
1 g samples of spiked JSC-1 rock were placed in test tubes, with 3 ml solvent and the mixture subjected to ultrasonication (20 minutes). The solvent was an aqueous surfactant solution containing polysorbate 80 in various amounts (either 1.5 g/L or 2.5 g/L), as set out in Table 1 below. The surfactant was dissolved either in water that contains 20% methanol (referred to in Table 1 as “w MeOH”) or pure water (“w/o MeOH”). After sonication the mixture was centrifuged (2500 rpm×10 min) and the supernatant pipetted into a test tube. A liquid/liquid extraction was then performed with dichloromethane, the dichloromethane was then blown down via nitrogen to 1 ml ready for further analysis by gas chromatography-mass spectrometry.
The organic constituents of extracts were separated on an Agilent technologies 6890N gas chromatograph. Extracts were dissolved in 1 ml dichloromethane and 1 μl was introduced via splitless injection into a HP-5 (0.25 mm×30 m×[…]) capillary column in a helium carrier gas. The column oven was operated with a temperature programme starting at 50° C. for 1 min followed by a ramp of 5° C. min−1 until 310° C. where the temperature was held for 20 min. Individual compounds were identified by introducing the column effluent into an Agilent technologies 5973 inert mass selective detector operated with a 12 min solvent delay and a scan range of m/z 50-550.
The extraction efficiency is measured as the percentage of the organic compounds that are extracted as compared to the amount originally present in the rock. […] Other variables include temperature and pressure. As can also be seen from Table 1, the optimum recovery appears to take place between about 0.5 an 3 grams per litre of polysorbate 80, which corresponds to 40 to 230 times the cmc of polysorbate 80.

[1] = polysorbate 80 1.5 g/L, with MeOH (water containing 20% methanol)
[2] = polysorbate 80 1.5 g/L, without MeOH (pure water)
[3] = polysorbate 80 2.5 g/L, with MeOH (water containing 20% methanol)
[4] = polysorbate 80 2.5 g/L, without MeOH (pure water)

SMILES	Extraction efficiency [1] [%]	Extraction efficiency [2] [%]	Extraction efficiency [3] [%]	Extraction efficiency [4] [%]
c1ccc2cc3ccccc3cc2c1 [Anthracene]	0	0	5.2	22.86
CCNc1nc(Cl)nc(NC(C)C)n1 [Atrazine]	7.35	12.6	5.4	5.62
c1ccc2c(c1)c1cccc3ccc4cccc2c4c31 [Benzo(e)pyrene]	2.38	0	20.33	30.55
CCCCCCCCCCCCCCCC [Hexadecane]	4.21	14.2	0.54	0.73
CCC(C)CCCC(C)CCCC(C)CCCC(C)C (stereo not shown) [Phytane]	8.91	29.08	0.93	10.7
CC(C)=CCC/C(C)=C/CC/C(C)=C/CC/C=C(\C)CC/C=C(\C)CCC=C(C)C [Squalene]	6.11	19.71	0.58	9.11
CC[C@H](/C=C/[C@@H](C)[C@H]1CC[C@H]2[C@@H]3CC=C4C[C@@H](O)CC[C@]4(C)[C@H]3CC[C@]12C)C(C)C [Stigmasterol]	0	0	3.06	10.88
